Data on two molecules can be found in patent publication US6130250A, “Veterinary use of a pleuromutilin derivative” (priority 1996, dated 2000).

In brackets after ≈: the same amount, converted by molar mass. Where two headings read alike, the source gives them in different places.

The conditions of experiment [1]: pig; cited from earlier work.
For experiment [2] the following is noted: hen; cited from earlier work.
A further experiment has as its system coccidia. The conditions noted are these: fowl; cited from earlier work.
In a further experiment the test system is Mycoplasma hyosynoviae. The experiment in a line: MIC assay, 7 field isolates of Mycoplasma hyosynoviae. Format: cell-based. The conditions noted are these: Mycoplasma; 7 field isolates. The protocol: Tissue samples are obtained from the lungs of pigs from various enzootic pneumonia of pigs (EPP)--affected herds. Samples are shipped on dry ice for culture. Four isolates from lung samples initially isolated for recovery of Mycoplasma hyopneumoniae were reisolated for Mycoplasma hyosynoviae after it had been noted from the lung samples submitted (re-stored at -70° C.), during culture for M. hyopneumoniae, that some samples yielded luxuriant growth of colonies having the typical morphology of Mycoplasma hyosynoviae. Three further isolates were recovered from other lung samples provided. All isolates were serologically identified by disc growth inhibition with specific rabbit antiserum raised against Mycoplasma hyosynoviae. A commerically available solid medium (Mycoplasma Experience Ltd.) is used to isolate M. hyosynoviae from lung tissue. A liquid medium (Mycoplasma Experience Ltd.) containing phenol red and arginine (pH 7.0) is used for the MIC assay.
(§1) Stock solutions of test compound are prepared at 1 mg/ml concentration in deionised water, sterilised by filtration through 0.2μ pore size membrane filters (Sartorius Minisart, N) and stored at -20° C. For use in the MIC tests the stock solutions are diluted in liquid medium to double the final concentrations required. MIC tests are carried out according to the method of Tanner and Wu, Avian Diseases 36 (1992) 714-717. Actively growing challenge cultures are prepared either from 1 ml aliquots of broth cultures stored at -70° C. or from cultures stored on agar at -70° C. The challenge cultures are diluted to give a target titre of 10^3 to 10^5 colour changing units/ml. 0.1 ml aliquots of challenge inocula are mixed with 0.1 ml aliquots of antibiotic dilution in microtitre wells. Each microtitre plate contains uninoculated media at pH 7.6 (end point control) and antibiotic-free inoculated challenge controls. All plates are sealed with adhesive film and incubated aerobically at 36° C. MICs are recorded when the colour change in the challenge control wells matches the pH of the end point control. The MIC is the lowest concentration showing no colour change.

The subject of the next experiment is M. hyopneumoniae. The experiment in a line: MIC, microtitre broth, ten field isolates and type strain J of M. hyopneumoniae. Format: cell-based, Mycoplasma hyopneumoniae.
Excerpt: Tissue samples are obtained from the lungs of pigs from various enzootic pneumonia of pigs (EPP)-affected herds. Samples are shipped on dry ice for culture. M. hyopneumoniae is recovered from freshly sectioned lung tissue by direct culture onto Mycoplasma Experience agar. This technique allows the distinctive colonies of M. hyopneumoniae to be recognised and readily separated, by cloning from other faster growing mycoplasma species such as Mycoplasma hyorhinis, often present in EPP lung samples. Isolates are subcultured and identified by disc growth inhibition using specific rabbit antiserum raised to M. hyopneumoniae NCTC 10110.
Cultures for antibiotic challenge are prepared in Mycoplasma Experience broth, incubated aerobically at 36° C.
A commercially available solid medium (Mycoplasma Experience Ltd.) is used to isolate M. hyopneumoniae from lung tissue. A liquid medium (Mycoplasma Experience Ltd.) containing phenol red and glucose (pH 7.6) is used for the MIC assays.
as §1, with “Tanner &” for “Tanner and”, “pH 6.8 (M. hyopneumoniae)” for “pH 7.6”, “wells match” for “wells matches”

[3] abbreviates: Mesomycoplasma hyopneumoniae, field strains (n = 10).

For `C=C[C@]1(C)C[C@@H](OC(=O)CSC(C)(C)CNC(=O)[C@H](N)C(C)C)[C@]2(C)[C@H](C)CC[C@]3(CCC(=O)[C@H]32)[C@@H](C)[C@@H]1O` [compound of formula I, 14-O-[1-[(R)-2-amino-3-methylbutyrylamino]-2-methylpropan-2-ylthioacetyl]mutilin], the “dosage showing growth-promoting activity” value in experiment [1] and in experiment [2] was 10-50 mg/kg of feed throughout. Further, the “dosage showing activity against coccidia” value in the experiment with coccidia was 20-150 mg/kg of feed.

A word on the MIC: it is the smallest concentration in the dilution series that meets the test's criterion for growth inhibition. In general, MIC50 refers to an inhibitory concentration at the 50% level, which refers to growth in some studies and to a panel of isolates in others. A higher MIC50 goes with lower susceptibility. In general, MIC90 refers to an inhibitory concentration at the 90% level, which refers to growth in some studies and to a panel of isolates in others. A higher MIC90 goes with lower susceptibility. As to `CCN1CCN(c2cc3c(cc2F)c(=O)c(C(=O)O)cn3C2CC2)CC1` [enrofloxacin], the MIC in the experiment on Mycoplasma hyosynoviae is 0.025 to 0.25 µg/mL (≈ 0.0696 to 0.696 µM); with M. hyopneumoniae (Mesomycoplasma hyopneumoniae, NCTC10110, Type Strain J (NCTC 10110), read-out: MIC), 0.025 µg/mL (≈ 0.0696 µM); in the experiment on M. hyopneumoniae (Mesomycoplasma hyopneumoniae, field strains (n = 10), read-out: MIC range), 0.0025 to 0.025 µg/mL (≈ 0.00696 to 0.0696 µM). The MIC50 in the experiment on M. hyopneumoniae (setting [3]) was 0.005 µg/mL (≈ 0.0139 µM). In addition, the MIC90 in the experiment on M. hyopneumoniae (setting [3]) amounted to 0.01 µg/mL (≈ 0.0278 µM). In addition, in the experiment on M. hyopneumoniae (field isolates), the “susceptibility of field isolates” value is “very good sensitivity”.
